In general, IC50 refers to the midpoint of a concentration-inhibition curve.

One data set has as its target T1, hERG (Homo sapiens, UniProt Q12809).
T1 construct: Millipore & Cerep (outsourced panels)
Put plainly: Secondary pharmacology binding panel (Millipore & Cerep). Particulars: at 10 µM. From the text:
As pharmacological properties regarding selectivity are crucial for the development of ENaC inhibitors, we first assessed the properties of AZD5634 through a standard battery of assessments.

A further data set addresses T2, ENaC (Homo sapiens, UniProt P37088+P51168+P51170).
T2 construct: host or cells: primary normal human bronchial epithelial cells, ALI culture
T2 sequence (P37088 1-669): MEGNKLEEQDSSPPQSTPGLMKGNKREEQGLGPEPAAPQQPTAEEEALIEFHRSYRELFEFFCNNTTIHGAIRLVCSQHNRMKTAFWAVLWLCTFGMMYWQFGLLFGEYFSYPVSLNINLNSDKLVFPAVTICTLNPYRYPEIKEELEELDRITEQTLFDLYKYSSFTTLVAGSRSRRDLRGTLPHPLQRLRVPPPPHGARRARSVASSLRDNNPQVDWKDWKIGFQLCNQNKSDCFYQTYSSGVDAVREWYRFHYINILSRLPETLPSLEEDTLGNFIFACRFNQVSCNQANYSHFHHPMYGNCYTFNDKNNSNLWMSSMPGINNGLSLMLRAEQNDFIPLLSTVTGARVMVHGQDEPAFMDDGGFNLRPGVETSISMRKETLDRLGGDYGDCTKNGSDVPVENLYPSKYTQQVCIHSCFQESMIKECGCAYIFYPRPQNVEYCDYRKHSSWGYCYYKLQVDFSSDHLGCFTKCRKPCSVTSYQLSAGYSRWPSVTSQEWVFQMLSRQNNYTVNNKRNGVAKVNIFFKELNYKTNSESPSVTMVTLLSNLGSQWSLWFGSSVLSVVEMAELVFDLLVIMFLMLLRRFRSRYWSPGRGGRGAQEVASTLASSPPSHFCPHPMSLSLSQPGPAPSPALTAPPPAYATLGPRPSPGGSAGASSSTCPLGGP
T2 sequence (P51168 1-640): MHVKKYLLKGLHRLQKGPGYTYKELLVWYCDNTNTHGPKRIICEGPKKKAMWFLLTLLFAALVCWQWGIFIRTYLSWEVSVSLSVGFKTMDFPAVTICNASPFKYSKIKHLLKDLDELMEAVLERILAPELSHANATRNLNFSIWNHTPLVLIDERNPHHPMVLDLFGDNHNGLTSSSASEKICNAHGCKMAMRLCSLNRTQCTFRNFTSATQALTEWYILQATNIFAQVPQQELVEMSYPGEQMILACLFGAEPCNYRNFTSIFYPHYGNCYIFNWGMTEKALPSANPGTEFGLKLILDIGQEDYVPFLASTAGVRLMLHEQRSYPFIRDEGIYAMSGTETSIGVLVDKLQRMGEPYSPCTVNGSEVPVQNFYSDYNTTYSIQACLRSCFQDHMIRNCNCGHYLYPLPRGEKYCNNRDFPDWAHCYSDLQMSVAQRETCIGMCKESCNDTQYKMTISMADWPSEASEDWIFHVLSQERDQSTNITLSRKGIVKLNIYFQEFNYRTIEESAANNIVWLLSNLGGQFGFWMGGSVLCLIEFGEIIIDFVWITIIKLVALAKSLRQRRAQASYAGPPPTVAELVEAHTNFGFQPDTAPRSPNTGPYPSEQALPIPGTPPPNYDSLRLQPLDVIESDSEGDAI
T2 sequence (P51170 1-649): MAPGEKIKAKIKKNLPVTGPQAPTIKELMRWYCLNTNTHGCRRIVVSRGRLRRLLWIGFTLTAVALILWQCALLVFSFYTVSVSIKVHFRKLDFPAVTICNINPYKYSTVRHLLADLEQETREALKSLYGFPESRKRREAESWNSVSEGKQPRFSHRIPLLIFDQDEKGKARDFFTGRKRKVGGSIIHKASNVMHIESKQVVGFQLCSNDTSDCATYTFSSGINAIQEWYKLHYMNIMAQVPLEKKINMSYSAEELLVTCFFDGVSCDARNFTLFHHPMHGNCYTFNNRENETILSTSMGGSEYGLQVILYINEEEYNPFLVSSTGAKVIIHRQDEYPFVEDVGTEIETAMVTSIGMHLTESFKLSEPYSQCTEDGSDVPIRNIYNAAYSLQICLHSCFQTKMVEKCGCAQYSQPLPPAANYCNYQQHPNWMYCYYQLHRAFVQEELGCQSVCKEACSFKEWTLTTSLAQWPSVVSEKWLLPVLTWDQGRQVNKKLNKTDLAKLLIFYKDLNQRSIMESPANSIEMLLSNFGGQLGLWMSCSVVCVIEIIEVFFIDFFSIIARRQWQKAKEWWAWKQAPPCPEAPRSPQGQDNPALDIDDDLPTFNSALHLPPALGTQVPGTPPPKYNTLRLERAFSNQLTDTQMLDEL
Put plainly: Ussing chamber short-circuit current (Isc) in normal HBEC ALI cultures from healthy donors. The data set is classed as cell-based. The method, then: Normal human bronchial epithelial cell (HBEC) cultures from healthy donors were procured from MatTek Corporation (Ashland, MA), grown at an ALI on Transwell permeable supports (0.4 µm polycarbonate membrane, 12 mm insert, and Costar Corning), and used to test the in vitro potency of AZD5634. Using the same protocol, sheep ALI cultures were prepared from primary bronchial epithelial cells (native sheep tracheas were obtained from Öströö Sheep Farm, Sweden, and internally processed at AstraZeneca R&D, Gothenburg, Sweden) to validate AZD5634 potency at sheep ENaC. Experiments were performed using modified Ussing chambers containing carboxygenated Krebs solution (95% O2-5% CO2) at 37°C. Cell layers were allowed to equilibrate before being voltage-clamped at 0 mV, and then briefly clamped at 10 mV to assess transepithelial electrical resistance.
All data are presented as means ± SE. Values of n refer to the number of cultures used in each group as appropriate. For normally distributed data, paired or unpaired Student’s t tests were used. For data that were not normally distributed, Mann–Whitney U test and Wilcoxon-matched pairs test were used. For comparisons of multiple groups, ANOVA tests were used followed by Tukey–Kramer multiple comparisons test (parametric) or ANOVA followed by Kruskal–Wallis test (nonparametric). For experiments using primary HBECs, a minimum of four different donors supplied cultures for each experiment. For the Ussing chamber data, unconstrained concentration–response curves were fitted using an in-house Microsoft Excel add-in package by nonlinear, four parameter, logistic regression analysis. From these curves, pEC50 and Emax values were taken from which mean values were calculated.

In data set [1] the test system is amiloride-sensitive potential difference. The arrangement: method as in PMID 35227647. Particulars: perfused to the nasal surface, people with CF; cited from earlier work.
Data set [2] deals with HBECs grown under ALI conditions. The experiment in a line: Gravimetric measurement of ASL (fluid retention) in HBEC ALI cultures. The class given is cell-based, human. Particulars: gravimetric ALI assay; concentrations of 0.1 µM and above. The method, then:
After 3–4 wk, the HBEC ALI cultures were washed with PBS twice before the experiment was initiated. Thirty microliters of either vehicle or test compound (10 μM) was added apically and inserts were weighed after removal of basolateral fluid as a crude but simple way to measure retention of fluid on the apical side of the airway cultures. The weighing procedure was repeated at 4, 8, and 24 h.

T1 sequence (Q12809 whole entry): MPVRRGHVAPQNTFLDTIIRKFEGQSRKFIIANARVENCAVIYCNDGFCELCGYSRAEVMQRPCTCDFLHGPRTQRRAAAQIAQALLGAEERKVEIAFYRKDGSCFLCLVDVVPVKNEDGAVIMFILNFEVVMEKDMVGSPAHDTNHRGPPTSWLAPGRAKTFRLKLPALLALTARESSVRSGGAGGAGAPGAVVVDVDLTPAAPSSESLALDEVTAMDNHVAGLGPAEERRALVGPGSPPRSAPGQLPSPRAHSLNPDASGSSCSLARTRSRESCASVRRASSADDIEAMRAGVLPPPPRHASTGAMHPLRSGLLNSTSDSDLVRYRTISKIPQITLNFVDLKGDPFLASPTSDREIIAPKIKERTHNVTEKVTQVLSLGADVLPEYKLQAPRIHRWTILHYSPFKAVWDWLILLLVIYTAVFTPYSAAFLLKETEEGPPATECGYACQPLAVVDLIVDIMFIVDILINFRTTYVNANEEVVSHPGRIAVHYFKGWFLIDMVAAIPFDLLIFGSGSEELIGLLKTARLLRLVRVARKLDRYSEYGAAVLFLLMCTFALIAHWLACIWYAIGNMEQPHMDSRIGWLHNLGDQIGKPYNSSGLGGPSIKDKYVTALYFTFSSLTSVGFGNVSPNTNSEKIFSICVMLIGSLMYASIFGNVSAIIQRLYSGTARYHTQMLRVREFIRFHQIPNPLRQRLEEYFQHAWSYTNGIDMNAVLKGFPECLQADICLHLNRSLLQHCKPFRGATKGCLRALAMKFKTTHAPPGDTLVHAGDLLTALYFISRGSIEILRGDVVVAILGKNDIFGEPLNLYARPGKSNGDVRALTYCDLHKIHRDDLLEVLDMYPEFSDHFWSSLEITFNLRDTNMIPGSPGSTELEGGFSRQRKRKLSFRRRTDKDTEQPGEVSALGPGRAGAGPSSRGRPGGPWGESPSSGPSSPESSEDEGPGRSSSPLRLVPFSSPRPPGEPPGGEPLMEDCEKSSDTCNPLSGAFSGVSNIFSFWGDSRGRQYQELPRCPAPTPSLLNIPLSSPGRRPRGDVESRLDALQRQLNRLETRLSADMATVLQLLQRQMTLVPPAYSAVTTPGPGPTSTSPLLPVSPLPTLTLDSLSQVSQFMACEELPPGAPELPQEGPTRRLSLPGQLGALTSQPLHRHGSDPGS

Consider AZD5634, for which the hERG inhibition at hERG turned out to be 13%. Besides, the “additional effect on Isc when benzamil was added” value at ENaC (benzamil 10 µM on final response plateau) is “No additional effect”. For the same substance, the “potency of inhibition of amiloride-sensitive current (Isc) relative to amiloride” value on ENaC (non-CF and CF airway cells) lay in the range of 2 to 3 logs. The IC50 at ENaC (normal HBEC ALI cultures, normalized to 10 µM benzamil = 100%, read-out: IC50 for decrease in Isc (EC50 in Fig. 1A legend)) turned out to be 3.8 nM. The “potency shift versus benzamil” value at ENaC (normal HBEC cultures, Isc) is on record as 1 log unit. Also, the “effect on amiloride-sensitive nasal potential difference” value in data set [1] was “acutely inhibited amiloride-sensitive potential difference”. Further, the “duration of (fluid-retaining) effect on ASL” value in data set [2] was over 24 h.

Source of the values: paper PMC9602792, “Preclinical evaluation of the epithelial sodium channel inhibitor AZD5634 and implications on human translation” (American Journal of Physiology - Lung Cellular and …, 2022).
